In ChEMBL document CHEMBL1649162, “Fenticonazole activity measured by the methods of the European Committee on Antimicrobial Susceptibility Testing and CLSI against 260 Candida vulvovaginitis isolates from two European regions and annotations on the prevalent genotypes” (2009):
≈ marks a conversion by molar mass, not a printed value.

Columns and labels:
Format in all cases: functional
Pichia kudriavzevii [1] = experiment: Antimicrobial activity against Candida krusei ATCC 6258 by CLSI M27-A2 broth microdilution method
Candida albicans [2] = experiment: Antimicrobial activity against Candida albicans by EUCAST broth microdilution method
Candida parapsilosis [3] = experiment: Antimicrobial activity against Candida parapsilosis ATCC 22019 by CLSI M27-A2 broth microdilution method; conditions: Lodderomyces parapsilosis
Candida albicans [4] = experiment: Antimicrobial activity against Candida albicans by CLSI M27-A2 broth microdilution method
Candida parapsilosis [5] = experiment: Antimicrobial activity against Candida parapsilosis ATCC 22019 by EUCAST broth microdilution method; conditions: Lodderomyces parapsilosis
Pichia kudriavzevii [6] = experiment: Antimicrobial activity against Candida krusei ATCC 6258 by EUCAST broth microdilution method
Nakaseomyces glabratus [7] = experiment: Antimicrobial activity against Candida glabrata by EUCAST broth microdilution method
Nakaseomyces glabratus [8] = experiment: Antimicrobial activity against Candida glabrata by CLSI M27-A2 broth microdilution method

Compound: Clc1ccc(C(Cn2ccnc2)OCc2ccc(Sc3ccccc3)cc2)c(Cl)c1 (configuration not stated) [FENTICONAZOLE]
- MIC50 (Pichia kudriavzevii [1]): 0.06 µg/mL (≈ 0.132 µM)
- MIC50 (Candida albicans [2]): 0.03 µg/mL (≈ 0.0659 µM)
- MIC50 (Candida parapsilosis [3]): 0.03 µg/mL (≈ 0.0659 µM)
- MIC50 (Candida albicans [4]): 0.03 µg/mL (≈ 0.0659 µM)
- MIC50 (Candida parapsilosis [5]): 0.03 µg/mL (≈ 0.0659 µM)
- MIC50 (Pichia kudriavzevii [6]): 0.06 µg/mL (≈ 0.132 µM)
- MIC50 (Nakaseomyces glabratus [7]): 0.03 µg/mL (≈ 0.0659 µM)
- MIC50 (Nakaseomyces glabratus [8]): 0.03 µg/mL (≈ 0.0659 µM)

Compound: OC(Cn1cncn1)(Cn1cncn1)c1ccc(F)cc1F [FLUCONAZOLE]
- MIC50 (Pichia kudriavzevii [1]): 16 µg/mL (≈ 52.2 µM)
- MIC50 (Candida albicans [2]): 0.12 µg/mL (≈ 0.392 µM)
- MIC50 (Candida parapsilosis [3]): 2 µg/mL (≈ 6.53 µM)
- MIC50 (Candida albicans [4]): 0.12 µg/mL (≈ 0.392 µM)
- MIC50 (Candida parapsilosis [5]): 0.5 µg/mL (≈ 1.63 µM)
- MIC50 (Pichia kudriavzevii [6]): 32 µg/mL (≈ 104 µM)
- MIC50 (Nakaseomyces glabratus [7]): 2 µg/mL (≈ 6.53 µM)
- MIC50 (Nakaseomyces glabratus [8]): 2 µg/mL (≈ 6.53 µM)

Compound: CCC(C)n1ncn(-c2ccc(N3CCN(c4ccc(OCC5COC(Cn6cncn6)(c6ccc(Cl)cc6Cl)O5)cc4)CC3)cc2)c1=O (configuration not stated) [ITRACONAZOLE]
- MIC50 (Pichia kudriavzevii [1]): 0.12 µg/mL (≈ 0.17 µM)
- MIC50 (Candida albicans [2]): 0.03 µg/mL (≈ 0.0425 µM)
- MIC50 (Candida parapsilosis [3]): 0.06 µg/mL (≈ 0.085 µM)
- MIC50 (Candida albicans [4]): 0.03 µg/mL (≈ 0.0425 µM)
- MIC50 (Candida parapsilosis [5]): 0.06 µg/mL (≈ 0.085 µM)
- MIC50 (Pichia kudriavzevii [6]): 0.03 µg/mL (≈ 0.0425 µM)
- MIC50 (Nakaseomyces glabratus [7]): 0.03 µg/mL (≈ 0.0425 µM)
- MIC50 (Nakaseomyces glabratus [8]): 0.03 µg/mL (≈ 0.0425 µM)

Compound: CC(=O)N1CCN(c2ccc(OCC3COC(Cn4ccnc4)(c4ccc(Cl)cc4Cl)O3)cc2)CC1 (configuration not stated) [KETOCONAZOLE]
- MIC50 (Pichia kudriavzevii [1]): 0.25 µg/mL (≈ 0.47 µM)
- MIC50 (Candida albicans [2]): 0.12 µg/mL (≈ 0.226 µM)
- MIC50 (Candida parapsilosis [3]): 0.12 µg/mL (≈ 0.226 µM)
- MIC50 (Candida albicans [4]): 0.12 µg/mL (≈ 0.226 µM)
- MIC50 (Candida parapsilosis [5]): 0.12 µg/mL (≈ 0.226 µM)
- MIC50 (Pichia kudriavzevii [6]): 0.12 µg/mL (≈ 0.226 µM)
- MIC50 (Nakaseomyces glabratus [7]): 2 µg/mL (≈ 3.76 µM)
- MIC50 (Nakaseomyces glabratus [8]): 0.5 µg/mL (≈ 0.941 µM)
